Source: patent US7754654B2, “Substituted spirocyclic ketoenols” (Bayer CropScience AG, priority 2002, dated 2010)
Several values for one entry are separate records, joined by “and”; a condition that tells them apart may be missing. Equal entries are not always repeated.

Experiments:
Type in all cases: in vivo
[1] = system: larvae of the mustard beetle (Phaedon cochleariae); experiment: Phaedon larvae test (cabbage leaf dip); settings: 1000 ppm
Description: (§1) To produce a suitable preparation of active compound, 1 part by weight of active compound is mixed with the stated amounts of solvent and emulsifier, and the concentrate is diluted with emulsifier-containing water to the desired concentration. Cabbage leaves (Brassica oleracea) are treated by being dipped into the preparation of active compound of the desired concentration and are populated with larvae of the mustard beetle (Phaedon cochleariae) while the leaves are still moist. After the desired period of time, the kill in % is determined. 100% means that all beetle larvae have been killed; 0% means that none of the beetle larvae have been killed.

[2] = system: peach aphid (Myzus persicae); experiment: Myzus test (cabbage leaf dip)
Description: To produce a suitable preparation of active compound, 1 part by weight of active compound is mixed with the stated amounts of solvent and emulsifier, and the concentrate is diluted with emulsifier-containing water to the desired concentration. Cabbage leaves (Brassica oleracea) which are heavily infested by the peach aphid (Myzus persicae) are treated by being dipped into the preparation of active compound of the desired concentration. After the desired period of time, the kill in % is determined. 100% means that all aphids have been killed; 0% means that none of the aphids have been killed.

[3] = system: greenhouse red spider mite (Tetranychus urticae); experiment: Tetranychus test (OP-resistant/dip treatment); settings: 100 ppm; bean plants dipped
Description: To produce a suitable preparation of active compound, 1 part by weight of active compound is mixed with the stated amounts of solvent and emulsifier, and the concentrate is diluted with emulsifier-containing water to the desired concentration. Bean plants (Phaseolus vulgaris) which are heavily infested by all stages of the greenhouse red spider mite (Tetranychus urticae) are dipped into a preparation of active compound of the desired concentration. After the desired period of time, the effect in % is determined. 100% means that all spider mites have been killed; 0% means that none of the spider mites have been killed.

[4] = system: caterpillars of the army worm (Spodoptera frugiperda); experiment: Spodoptera frugiperda test (cabbage leaf dip)
Description: as §1, with “caterpillars” for “larvae”, “army worm (Spodoptera frugiperda)” for “mustard beetle (Phaedon cochleariae)”, “caterpillars” for “beetle larvae”

Alopecurus [5] = experiment: Pre-emergence test; settings: after three weeks
Description: (§2) To produce a suitable preparation of active compound, 1 part by weight of active compound is mixed with the stated amount of solvent, the stated amount of emulsifier is added and the concentrate is diluted with water to the desired concentration. Seeds of the test plants are sown in normal soil. After about 24 hours, the soil is sprayed with the preparation of active compound such that the particular amounts of active compound desired are applied per unit area. The concentration of the spray liquor is chosen such that the particular amounts of active compound desired are applied in 1000 l of water/ha. After three weeks, the degree of damage to the plants is rated in % damage in comparison to the development of the untreated control. The figures denote: • 0%=no effect (like untreated control) • 100%=total destruction

Amaranthus [6] = experiment: Pre-emergence test; settings: after three weeks
Description: as §2

Setaria [7] = experiment: Pre-emergence test; settings: after three weeks
Description: as §2

Alopecurus [8] = experiment: Post-emergence test; settings: 250 g of ai/ha, after three weeks
Description: as §2, with “Test plants” for “Seeds”, “a height of 5-15 cm” for “the test plants”, “are” for “are sown in normal soil. After about 24 hours, the soil is”

Sugar beet = experiment: Post-emergence test; settings: 250 g of ai/ha, after three weeks
Description: as §2, with “Test plants” for “Seeds”, “a height of 5-15 cm” for “the test plants”, “are” for “are sown in normal soil. After about 24 hours, the soil is”

Amaranthus [9] = experiment: Post-emergence test; settings: 250 g of ai/ha, after three weeks
Description: as §2, with “Test plants” for “Seeds”, “a height of 5-15 cm” for “the test plants”, “are” for “are sown in normal soil. After about 24 hours, the soil is”

Setaria [10] = experiment: Post-emergence test; settings: 250 g of ai/ha, after three weeks
Description: as §2, with “Test plants” for “Seeds”, “a height of 5-15 cm” for “the test plants”, “are” for “are sown in normal soil. After about 24 hours, the soil is”

Sinapis [11] = experiment: Post-emergence test; settings: 250 g of ai/ha, after three weeks
Description: as §2, with “Test plants” for “Seeds”, “a height of 5-15 cm” for “the test plants”, “are” for “are sown in normal soil. After about 24 hours, the soil is”

Sinapis [12] = experiment: Pre-emergence test; settings: after three weeks
Description: as §2

Echinochloa = experiment: Pre-emergence test; settings: 2000 g of ai/ha, after three weeks
Description: as §2

Meloidogyne incognita = experiment: Meloidogyne test (gall formation on lettuce roots); settings: 20 ppm; nematicidal action by gall formation, 100% = no galls
Description: To produce a suitable preparation of active compound, 1 part by weight of active compound is mixed with the stated amounts of solvent and emulsifier, and the concentrate is diluted with water to the desired concentration. Containers are filled with sand, solution of active compound, Meloidogyne incognita egg/larvae suspension and lettuce seeds. The lettuce seeds germinate and the plants develop. On the roots, galls are formed. After the desired period of time, the nematicidal action is determined in % by the gall formation. 100% means that no galls have been found; 0% means that the number of galls on the treated plants corresponds to that of the untreated control.

Botrytis cinerea = experiment: Botrytis test (bean)/protective; settings: 500 g/ha, protective, 2 days after inoculation
Description: To produce a suitable preparation of active compound, 1 part by weight of active compound is mixed with the stated amounts of solvent and emulsifier, and the concentrate is diluted with water to the desired concentration. To test for protective activity, young plants are sprayed with the preparation of active compound at the stated application rate. After the spray coating has dried on, 2 small pieces of agar colonized by Botrytis cinerea are placed onto each leaf. The inoculated plants are placed in a dark chamber at about 20° C. and 100% relative atmospheric humidity. 2 days after the inoculation, the size of the infested areas of the leaves is evaluated. 0% means an efficacy which corresponds to that of the control, whereas an efficacy of 100% means that no infection is observed.

Avena fatua = experiment: Pre-emergence test; settings: 125 g of ai/ha, after three weeks
Description: as §2

[13] = system: larva (L3) of the army worm (Spodoptera frugiperda); experiment: Spodoptera frugiperda test/synthetic feed; settings: 1000 ppm; synthetic feed
Description: To produce a suitable preparation of active compound, 1 part by weight of active compound is mixed with the stated amounts of solvent and emulsifier, and the concentrate is diluted with emulsifier-containing water to the desired concentration. A stated amount of the preparation of active compound of the desired concentration is pipetted onto a standardized amount of synthetic feed. In 6 replications, in each case one larva (L3) of the army worm (Spodoptera frugiperda) is placed onto the feed. After the desired period of time, the kill in % is determined. 100% means that all animals have been killed; 0% means that none of the animals have been killed.

With `Cc1cc(C)c(C2=C(O)C3(CCC(OCCOC(C)C)CC3)NC2=O)c(C)c1C` (single isomer, unassigned) [Ex. I-1-a-2] the “Kill rate in % after 7d” value [1] was 100%, the “Kill rate in % after 6d” value ([2]; 1000 ppm) was 100% and the “Kill rate in % after 7d” value [3] was 95%.
With `COCCOC1CCC2(CC1)NC(=O)C(c1c(C)cc(C)c(C)c1C)=C2O` (single isomer, unassigned) [Ex. I-1-a-3] the “Kill rate in % after 7d” value [1] was 100% and the “Kill rate in % after 7d” value [3] was 98%.
`COCCOC1CCC2(CC1)NC(=O)C(c1c(C)cc(C)cc1C)=C2O` (single isomer, unassigned) [Ex. I-1-a-4] was tested, and the “Kill rate in % after 7d” value ([4]; 1000 ppm) was 100%, the “% damage” value (Alopecurus [5]; 250 g of ai/ha) was 80% and the “% damage” value (Amaranthus [6]; 250 g of ai/ha) was 95%. For the same compound, the “% damage” value (Setaria [7]; 250 g of ai/ha) was 100% and the “Kill rate in % after 6d” value ([2]; 1000 ppm) was 90%.
For `COCCOC1CCC2(CC1)NC(=O)C(c1cc(C)ccc1C)=C2O` (single isomer, unassigned) [Ex. I-1-a-5], the “Kill rate in % after 7d” value ([4]; 1000 ppm) was 100% and the “Kill rate in % after 6d” value ([2]; 1000 ppm) was 98%.
In the case of `Cc1cc(C)c(C2=C(O)C3(CCC(OCC4CCCO4)CC3)NC2=O)c(C)c1C` (single isomer, unassigned) [Ex. I-1-a-6], the “Kill rate in % after 7d” value [1] is reported as 100%.
`Cc1cc(C)c(C2=C(O)C3(CCC(OCC4CCCO4)CC3)NC2=O)cc1C` (single isomer, unassigned) [Ex. I-1-a-8] was tested, and the “Kill rate in % after 7d” value ([4]; 1000 ppm) was 100%.
In the case of `Cc1ccc(C)c(C2=C(O)C3(CCC(OCC4CCCO4)CC3)NC2=O)c1` (single isomer, unassigned) [Ex. I-1-a-9], the “Kill rate in % after 7d” value [1] is reported as 100%.
`Cc1cc(Cl)cc(C)c1C1=C(O)C2(CCC(OCC3CCCO3)CC2)NC1=O` (single isomer, unassigned) [Ex. I-1-a-10] was tested, and the “Kill rate in % after 7d” value [1] was 100%, the “% damage” value (Alopecurus [8]) was 70% and the “% damage” value (Sugar beet) was 0%. The “% damage” value (Amaranthus [9]) was 90%, the “% damage” value (Setaria [10]) was 95% and the “% damage” value (Sinapis [11]) was 80%.
With `C=CCOC1CCC2(CC1)NC(=O)C(c1c(C)cc(Cl)cc1C)=C2O` (single isomer, unassigned) [Ex. I-1-a-11] the “Kill rate in % after 7d” value ([4]; 500 ppm) was 100%, the “% damage” value (Sinapis [12]; 2000 g of ai/ha) was 90% and the “% damage” value (Echinochloa) was 100%. For the same compound, the “Kill rate in % after 7d” value [3] was 95%.
For `C=CCOC1CCC2(CC1)NC(=O)C(c1c(C)cc(Cl)cc1Cl)=C2O` (single isomer, unassigned) [Ex. I-1-a-12], the “Kill rate in % after 7d” value ([4]; 500 ppm) was 100% and the “% damage” value (Amaranthus [6]; 2000 g of ai/ha) was 90%.
For `C=CCOC1CCC2(CC1)NC(=O)C(c1c(C)cc(Cl)cc1Cl)=C2O` (single isomer, unassigned) [Ex. I-1-a-13], the “% damage” value (Alopecurus [5]; 2000 g of ai/ha) was 95% and 90%.
For `Cc1cc(C)c(C2=C(O)C3(CCC(OCc4ccccc4Cl)CC3)NC2=O)cc1C` (single isomer, unassigned) [Ex. I-1-a-20], the “Kill rate in % after 7d” value [1] was 100%.
With `Cc1ccc(C)c(C2=C(O)C3(CCC(OCc4ccccc4Cl)CC3)NC2=O)c1` (single isomer, unassigned) [Ex. I-1-a-21] the “Kill rate in % after 7d” value [1] was 100%.
`Cc1cc(C)c(C2=C(O)C3(CCC(OCc4cccc(Cl)c4)CC3)NC2=O)c(C)c1C` (single isomer, unassigned) [Ex. I-1-a-22] was tested, and the “Kill rate in % after 7d” value [1] was 100% and the “Effect in % after 14d” value (Meloidogyne incognita) was 98%.
For `Cc1ccc(C)c(C2=C(O)C3(CCC(OCc4cccc(Cl)c4)CC3)NC2=O)c1` (single isomer, unassigned) [Ex. I-1-a-25], the “Kill rate in % after 7d” value [1] was 100%.
`Cc1cc(C)c(C2=C(O)C3(CCC(OCc4ccc(Cl)cc4)CC3)NC2=O)c(C)c1C` (single isomer, unassigned) [Ex. I-1-a-26] was tested, and the “Kill rate in % after 7d” value [1] was 100% and the “Effect in % after 14d” value (Meloidogyne incognita) was 100%.
In the case of `Cc1ccc(-c2ccc(Cl)cc2)cc1C1=C(O)C2(CCC(OCc3ccc(Cl)cc3)CC2)NC1=O` (single isomer, unassigned) [Ex. I-1-a-30], the “Kill rate in % after 6d” value ([2]; 500 ppm) is reported as 100%, the “% efficacy” value (Botrytis cinerea) is reported as 100% and the “Kill rate in % after 7d” value [3] is reported as 99%.
For `O=C1NC2(CCC(OCc3ccc(Cl)cc3)CC2)C(O)=C1c1cc(-c2ccc(Cl)cc2)ccc1Cl` (single isomer, unassigned) [Ex. I-1-a-31], the “Kill rate in % after 7d” value ([4]; 500 ppm) was 100%, the “Effect in % after 14d” value (Meloidogyne incognita) was 95% and the “Kill rate in % after 7d” value [3] was 99%.
`C=CCOC1CCC2(CC1)NC(=O)C(c1c(C)cc(Cl)cc1C)=C2OC(=O)OCC` (single isomer, unassigned) [Ex. I-1-c-2] was tested, and the “Effect in % after 14d” value (Meloidogyne incognita) was 100% and the “Kill rate in % after 6d” value ([2]; 500 ppm) was 95%.
`CCOC(=O)OC1=C(c2c(C)cc(C)cc2C)C(=O)NC12CCC(OCc1ccccc1)CC2` (single isomer, unassigned) [Ex. I-1-c-3] was tested, and the “% damage” value (Alopecurus [5]; 125 g of ai/ha) was 90%, the “% damage” value (Avena fatua) was 70% and the “% damage” value (Setaria [7]; 125 g of ai/ha) was 100%. For the same compound, the “% damage” value (Sinapis [12]; 125 g of ai/ha) was 90%.
In the case of `Cc1ccc(C)c(C2=C(OC(=O)C(C)C)C3(CCC(OCc4ccccc4)CC3)NC2=O)c1` (stereo not drawn) [Ex. I-1-b-1], the “Kill rate in % after 7d” value [13] is reported as 100%.
